Data from patent US20210045385A1, “PYRIDAZINONE-SUBSTITUTED KETOXIMES AS HERBICIDES” (FMC Corporation, priority 2018, published 2021).

Assays:
Format in all cases: in vivo
[1] = tested on: barnyardgrass (Echinochloa crus-galli); assay: Test A preemergence, visual plant response rating; conditions: for Barnyardgrass plant response rating: 125 g ai/ha, preemergence, 0 to 100 scale, 0 no effect, 100 complete control; for Barnyardgrass plant response rating (0 to 100 scale): 500 g ai/ha Preemergence, approx. 10 days
Method in brief: (§1)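 Greenhouse pot test in loam–sand soil mix: compound in a surfactant-containing non-phytotoxic solvent applied preemergence (directed soil spray) or postemergence (one- to two-leaf plants, 2–10 cm). Injury scored visually after ~10 days, 0–100.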

[2] = tested on: foxtail, giant (giant foxtail, Setaria faberii); assay: Test A preemergence, visual plant response rating; conditions: for Foxtail, Giant plant response rating: 125 g ai/ha, preemergence, 0 to 100 scale, 0 no effect, 100 complete control; for Foxtail, Giant plant response rating (0 to 100 scale): 500 g ai/ha Preemergence, approx. 10 days
Method in brief: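 Ratings use a 0–100 visual scale (100 = complete control) against untreated controls, scored about 10 days after greenhouse treatment. Test chemicals were formulated in surfactant-containing non-phytotoxic solvent and applied either as soil spray after planting (preemergence) or onto one- to two-leaf, 2–10 cm plants (postemergence).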

[3] = tested on: ragweed (common ragweed, Ambrosia elatior); assay: Test A preemergence, visual plant response rating; conditions: for Ragweed plant response rating: 125 g ai/ha, preemergence, 0 to 100 scale, 0 no effect, 100 complete control; for Ragweed plant response rating (0 to 100 scale): 500 g ai/ha Preemergence, approx. 10 days
Method in brief: as §1

kochia (Kochia scoparia) [4] = assay: Test A preemergence, visual plant response rating; conditions: for Kochia plant response rating: 125 g ai/ha, preemergence, 0 to 100 scale, 0 no effect, 100 complete control; for Kochia plant response rating (0 to 100 scale): 500 g ai/ha Preemergence, approx. 10 days
Method in brief: as §1

[5] = tested on: Italian ryegrass (Lolium multiflorum); assay: Test A preemergence, visual plant response rating; conditions: for Ryegrass, Italian plant response rating (0 to 100 scale): 500 g ai/ha Preemergence, approx. 10 days
Method in brief: as §1

[6] = tested on: pigweed (Amaranthus retroflexus); assay: Test A preemergence, visual plant response rating; conditions: for Pigweed plant response rating: 125 g ai/ha, preemergence, 0 to 100 scale, 0 no effect, 100 complete control; for Pigweed plant response rating (0 to 100 scale): 500 g ai/ha Preemergence, approx. 10 days
Method in brief: as §1

[7] = tested on: galium (catchweed bedstraw, Galium aparine); assay: Test A postemergence, visual plant response rating; conditions: for Galium plant response rating (0 to 100 scale): 500 g ai/ha, postemergence, 0 is no effect, 100 is complete control; for Galium plant response rating: Postemergence, 125 g ai/ha, 0 to 100 scale (0 no effect, 100 complete control)
Method in brief: as §1

[8] = tested on: wheat (Triticum aestivum); assay: Test A postemergence, visual plant response rating; conditions: for Wheat plant response rating (0 to 100 scale): 500 g ai/ha, postemergence, 0 is no effect, 100 is complete control; for Wheat plant response rating: Postemergence, 125 g ai/ha, 0 to 100 scale (0 no effect, 100 complete control)
Method in brief: as §1

[9] = tested on: barnyardgrass (Echinochloa crus-galli); assay: Test A postemergence, visual plant response rating; conditions: for Barnyardgrass plant response rating (0 to 100 scale): 500 g ai/ha, postemergence, 0 is no effect, 100 is complete control; for Barnyardgrass plant response rating: Postemergence, 125 g ai/ha, 0 to 100 scale (0 no effect, 100 complete control)
Method in brief: as §1

corn (Zea mays) = assay: Test A postemergence, visual plant response rating; conditions: for Corn plant response rating (0 to 100 scale): 500 g ai/ha, postemergence, 0 is no effect, 100 is complete control; for Corn plant response rating: Postemergence, 125 g ai/ha, 0 to 100 scale (0 no effect, 100 complete control)
Method in brief: as §1

[10] = tested on: foxtail, giant (giant foxtail, Setaria faberii); assay: Test A postemergence, visual plant response rating; conditions: for Foxtail, Giant plant response rating (0 to 100 scale): 500 g ai/ha, postemergence, 0 is no effect, 100 is complete control; for Foxtail, Giant plant response rating: Postemergence, 125 g ai/ha, 0 to 100 scale (0 no effect, 100 complete control)
Method in brief: as §1

[11] = tested on: blackgrass (Alopecurus myosuroides); assay: Test A postemergence, visual plant response rating; conditions: for Blackgrass plant response rating (0 to 100 scale): 500 g ai/ha, postemergence, 0 is no effect, 100 is complete control; for Blackgrass plant response rating: Postemergence, 125 g ai/ha, 0 to 100 scale (0 no effect, 100 complete control)
Method in brief: as §1

[12] = tested on: ragweed (common ragweed, Ambrosia elatior); assay: Test A postemergence, visual plant response rating; conditions: for Ragweed plant response rating (0 to 100 scale): 500 g ai/ha, postemergence, 0 is no effect, 100 is complete control; for Ragweed plant response rating: Postemergence, 125 g ai/ha, 0 to 100 scale (0 no effect, 100 complete control)
Method in brief: as §1

kochia (Kochia scoparia) [13] = assay: Test A postemergence, visual plant response rating; conditions: for Kochia plant response rating (0 to 100 scale): 500 g ai/ha, postemergence, 0 is no effect, 100 is complete control; for Kochia plant response rating: Postemergence, 125 g ai/ha, 0 to 100 scale (0 no effect, 100 complete control)
Method in brief: as §1

[14] = tested on: Italian ryegrass (Lolium multiflorum); assay: Test A postemergence, visual plant response rating; conditions: for Ryegrass, Italian plant response rating (0 to 100 scale): 500 g ai/ha, postemergence, 0 is no effect, 100 is complete control; for Ryegrass, Italian plant response rating: Postemergence, 125 g ai/ha, 0 to 100 scale (0 no effect, 100 complete control)
Method in brief: as §1

[15] = tested on: pigweed (Amaranthus retroflexus); assay: Test A postemergence, visual plant response rating; conditions: for Pigweed plant response rating (0 to 100 scale): 500 g ai/ha, postemergence, 0 is no effect, 100 is complete control; for Pigweed plant response rating: Postemergence, 125 g ai/ha, 0 to 100 scale (0 no effect, 100 complete control)
Method in brief: as §1

[16] = tested on: barnyardgrass (Echinochloa crus-galli); assay: Test B flooded paddy test, visual plant response rating; conditions: 250 g ai/ha, Flood, applied to paddy water, 2-leaf stage, evaluated after 13 to 15 days
Method in brief: (§2)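 Test pots are flooded 3 cm above the soil at treatment, and the test substance is introduced into this standing water. After keeping the flood level and growing plants, treated at the 2-leaf stage, for 13 to 15 days under glass, injury is assessed visually versus controls.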

rice (Oryza sativa) = assay: as above; conditions: 250 g ai/ha, Flood, applied to paddy water, 2-leaf stage, evaluated after 13 to 15 days
Method in brief: as §2

[17] = tested on: sedge, umbrella (small-flower umbrella sedge, Cyperus difformis); assay: as above; conditions: 250 g ai/ha, Flood, applied to paddy water, 2-leaf stage, evaluated after 13 to 15 days
Method in brief: as §2

[18] = tested on: ducksalad (Heteranhera limosa); assay: as above; conditions: 250 g ai/ha, Flood, applied to paddy water, 2-leaf stage, evaluated after 13 to 15 days
Method in brief: as §2

Structure (SMILES) | Barnyardgrass plant response rating [1] | Barnyardgrass plant response rating (0 to 100 scale) [1] | Foxtail, Giant plant response rating [2] | Foxtail, Giant plant response rating (0 to 100 scale) [2] | Ragweed plant response rating [3] | Ragweed plant response rating (0 to 100 scale) [3] | Kochia plant response rating (kochia (Kochia scoparia) [4]) | Kochia plant response rating (0 to 100 scale) (kochia (Kochia scoparia) [4]) | Ryegrass, Italian plant response rating (0 to 100 scale) [5] | Pigweed plant response rating [6] | Pigweed plant response rating (0 to 100 scale) [6] | Galium plant response rating (0 to 100 scale) [7] | Galium plant response rating [7] | Wheat plant response rating (0 to 100 scale) [8] | Wheat plant response rating [8] | Barnyardgrass plant response rating (0 to 100 scale) [9] | Barnyardgrass plant response rating [9] | Corn plant response rating (0 to 100 scale) (corn (Zea mays)) | Corn plant response rating (corn (Zea mays)) | Foxtail, Giant plant response rating (0 to 100 scale) [10] | further results
C=CCc1ccccc1C(=NOC)c1c(O)c(C)nn(C)c1=O [Compound 122] | 0 | 30 | 10 | 80 | 10 | 50 | 0 | 10 | 60 | 20 | 90 | 80 | 60 | 30 | 0 | 60 | 20 | 10 | 0 | 70 | Ryegrass, Italian plant response rating ([5]; 125 g ai/ha, preemergence, 0 to 100 scale, 0 no effect, 100 complete control): 50; Foxtail, Giant plant response rating [10]: 50; Blackgrass plant response rating (0 to 100 scale) [11]: 40; Blackgrass plant response rating [11]: 20; Ragweed plant response rating (0 to 100 scale) [12]: 60; Ragweed plant response rating [12]: 50; Kochia plant response rating (0 to 100 scale) (kochia (Kochia scoparia) [13]): 50; Kochia plant response rating (kochia (Kochia scoparia) [13]): 40; Ryegrass, Italian plant response rating (0 to 100 scale) [14]: 90; Ryegrass, Italian plant response rating [14]: 70; Pigweed plant response rating (0 to 100 scale) [15]: 70; Pigweed plant response rating [15]: 60; Plant response rating, Barnyardgrass (0 to 100 scale, 0 is no effect, 100 is complete control) [16]: 0; Plant response rating, Rice (0 to 100 scale, 0 is no effect, 100 is complete control) (rice (Oryza sativa)): 0; Plant response rating, Sedge, Umbrella (0 to 100 scale, 0 is no effect, 100 is complete control) [17]: 0; Plant response rating, Ducksalad (0 to 100 scale, 0 is no effect, 100 is complete control) [18]: 0
CON=C(c1cccc(C2CC2)c1)c1c(O)c(C)nn(C)c1=O [Compound 123] | 0 | 50 | 10 | 40 | 50 | 80 | 10 | 50 | 90 | 40 | 60 | 80 | 70 | 10 | 0 | 40 | 0 | 0 | 0 | 60 | Foxtail, Giant plant response rating [10]: 20; Blackgrass plant response rating (0 to 100 scale) [11]: 30; Blackgrass plant response rating [11]: 20; Ragweed plant response rating (0 to 100 scale) [12]: 90; Ragweed plant response rating [12]: 80; Kochia plant response rating (0 to 100 scale) (kochia (Kochia scoparia) [13]): 70; Kochia plant response rating (kochia (Kochia scoparia) [13]): 50; Ryegrass, Italian plant response rating (0 to 100 scale) [14]: 80; Ryegrass, Italian plant response rating [14]: 60; Pigweed plant response rating (0 to 100 scale) [15]: 80; Pigweed plant response rating [15]: 70; Plant response rating, Barnyardgrass (0 to 100 scale, 0 is no effect, 100 is complete control) [16]: 0; Plant response rating, Rice (0 to 100 scale, 0 is no effect, 100 is complete control) (rice (Oryza sativa)): 0; Plant response rating, Sedge, Umbrella (0 to 100 scale, 0 is no effect, 100 is complete control) [17]: 0; Plant response rating, Ducksalad (0 to 100 scale, 0 is no effect, 100 is complete control) [18]: 0
